Experimental findings from ChEMBL document CHEMBL2062364, “Discovery and optimization of new benzimidazole- and benzoxazole-pyrimidone selective PI3Kβ inhibitors for the treatment of phosphatase and TENsin homologue (PTEN)-deficient cancers” (J Med Chem, 2012) are described below.

Converted amounts (≈) assume the structure as drawn.

Data set [1] has as its target T1, Phosphatidylinositol 4,5-bisphosphate 3-kinase catalytic subunit alpha isoform (Homo sapiens, UniProt P42336). Kind of data set: Inhibition of N-terminus poly-His tagged human PI3Kalpha expressed in baculovirus infected insect sf9 cells coexpressing p85alpha using PI(4,5)P2 as substrate preincubated with compound for 15 mins measured after 10 mins by HTRF assay.

Data set [2] concerns the target T2, Phosphatidylinositol 4,5-bisphosphate 3-kinase catalytic subunit delta isoform (Homo sapiens, UniProt O00329).
T2 sequence (O00329 whole entry): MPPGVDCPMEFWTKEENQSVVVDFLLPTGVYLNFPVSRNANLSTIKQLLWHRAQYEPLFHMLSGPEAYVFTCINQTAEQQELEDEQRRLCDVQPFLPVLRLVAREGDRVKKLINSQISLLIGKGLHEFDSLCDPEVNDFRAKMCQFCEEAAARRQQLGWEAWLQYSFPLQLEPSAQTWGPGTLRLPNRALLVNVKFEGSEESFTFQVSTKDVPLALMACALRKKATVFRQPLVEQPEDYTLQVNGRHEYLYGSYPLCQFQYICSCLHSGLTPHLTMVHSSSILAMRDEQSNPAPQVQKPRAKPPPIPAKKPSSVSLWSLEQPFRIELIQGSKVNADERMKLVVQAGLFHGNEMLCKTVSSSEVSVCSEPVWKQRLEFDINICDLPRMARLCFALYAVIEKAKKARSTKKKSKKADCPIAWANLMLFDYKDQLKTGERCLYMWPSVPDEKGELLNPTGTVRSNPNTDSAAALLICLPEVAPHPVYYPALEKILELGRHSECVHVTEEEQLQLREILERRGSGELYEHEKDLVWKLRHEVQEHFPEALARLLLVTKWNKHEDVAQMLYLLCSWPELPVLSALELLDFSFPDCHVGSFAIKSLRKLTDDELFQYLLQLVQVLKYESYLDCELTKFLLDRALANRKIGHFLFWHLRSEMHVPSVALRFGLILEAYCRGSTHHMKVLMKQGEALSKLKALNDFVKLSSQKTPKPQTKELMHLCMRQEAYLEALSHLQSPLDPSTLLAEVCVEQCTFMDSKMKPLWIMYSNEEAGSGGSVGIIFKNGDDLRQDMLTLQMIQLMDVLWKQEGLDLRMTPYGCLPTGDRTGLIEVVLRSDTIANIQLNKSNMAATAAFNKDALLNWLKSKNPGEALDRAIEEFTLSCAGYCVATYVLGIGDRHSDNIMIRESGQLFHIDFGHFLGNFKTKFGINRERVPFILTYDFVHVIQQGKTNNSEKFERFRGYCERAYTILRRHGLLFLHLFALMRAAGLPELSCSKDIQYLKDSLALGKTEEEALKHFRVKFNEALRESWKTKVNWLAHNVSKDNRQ
Kind of data set: Inhibition of human PI3Kdelta-mediated Akt phosphorylation at Ser473 residue expressed in mouse MEF-3T3 cells after 0.5 to 2 hrs by Western blot analysis. The data set is classed as cell-based.

Data set [3] is described as follows: Inhibition of mTORC2-mediated Akt phosphorylation at Ser473 residue in PTEN-deficient human PC3 cells after 2 hrs by Western blot analysis. The format is cell-based. The settings on record: PC-3, 2 h.
The target of data set [4] is T1, Phosphatidylinositol 4,5-bisphosphate 3-kinase catalytic subunit alpha isoform. Kind of data set: Inhibition of human PI3Kalpha-mediated Akt phosphorylation at Ser473 residue expressed in human H460 cells after 0.5 to 2 hrs by Western blot analysis. The data set is classed as cell-based.
The target in data set [5] is T2, Phosphatidylinositol 4,5-bisphosphate 3-kinase catalytic subunit delta isoform. The experiment in a line: Inhibition of poly-His tagged human PI3Kdelta expressed in baculovirus infected insect sf9 cells coexpressing p85alpha using PI(4,5)P2 as substrate preincubated with compound for 15 mins measured after 10 mins by HTRF assay.
Data set [6] addresses T3, Phosphatidylinositol 4,5-bisphosphate 3-kinase catalytic subunit gamma isoform (Homo sapiens, UniProt P48736). Kind of data set: Inhibition of N-terminus poly-His tagged human PI3Kgamma expressed in baculovirus infected insect sf9 cells using PI(4,5)P2 as substrate preincubated with compound for 15 mins measured after 10 mins by HTRF assay.
The target in data set [7] is T3, Phosphatidylinositol 4,5-bisphosphate 3-kinase catalytic subunit gamma isoform. The experiment in a line: Inhibition of human PI3Kgamma-mediated Akt phosphorylation at Ser473 residue expressed in mouse RAW264.7 cells after 0.5 to 2 hrs by Western blot analysis. The format is cell-based.
Data set [8] deals with Cytochrome P450 3A4 (Homo sapiens, UniProt P08684). Kind of data set: Inhibition of human recombinant CPY3A4.
Sequence of Cytochrome P450 3A4 (P08684 whole entry): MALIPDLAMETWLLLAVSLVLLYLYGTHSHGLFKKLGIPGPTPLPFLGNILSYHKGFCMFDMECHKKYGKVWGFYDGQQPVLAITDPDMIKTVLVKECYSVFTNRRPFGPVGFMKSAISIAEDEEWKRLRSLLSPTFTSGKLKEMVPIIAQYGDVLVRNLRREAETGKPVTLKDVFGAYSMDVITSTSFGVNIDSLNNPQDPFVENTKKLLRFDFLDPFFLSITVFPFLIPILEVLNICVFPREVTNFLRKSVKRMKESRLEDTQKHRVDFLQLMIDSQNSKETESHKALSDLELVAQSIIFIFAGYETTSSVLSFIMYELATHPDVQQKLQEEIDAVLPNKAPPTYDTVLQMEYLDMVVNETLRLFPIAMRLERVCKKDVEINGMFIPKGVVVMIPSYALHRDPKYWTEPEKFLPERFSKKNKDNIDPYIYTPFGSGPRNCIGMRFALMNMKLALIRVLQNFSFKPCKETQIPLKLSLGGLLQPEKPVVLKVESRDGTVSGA
A short description of data set [9]: Apparent permeability of the compound across human Caco2 cells. To be noted: Caco-2. The format is ADME, cell-based.
Data set [10] deals with Serine/threonine-protein kinase mTOR (Homo sapiens, UniProt P42345). The experiment in a line: Inhibition of mTOR.
A short description of data set [11]: Thermodynamic solubility of the compound in phosphate buffer at pH 7.4 after 16 hrs by HPLC analysis. The format is physicochemical. The settings on record: read-out: Therm_solubility.
Data set [12] concerns the target T4, Phosphatidylinositol 4,5-bisphosphate 3-kinase catalytic subunit beta isoform (Homo sapiens, UniProt P42338). The experiment in a line: Inhibition of N-terminus poly-His tagged human PI3Kbeta expressed in baculovirus infected insect […] cells coexpressing p85alpha using PI(4,5)P2 as substrate preincubated with compound for 15 mins measured after 10 mins by HTRF assay.

In data set [13] the target is T4, Phosphatidylinositol 4,5-bisphosphate 3-kinase catalytic subunit beta isoform. Kind of data set: Inhibition of human PI3Kbeta-mediated Akt phosphorylation at Ser473 residue expressed in PTEN-deficient human PC3 cells by chemiluminescence assay. The format is cell-based, PC-3.
Data set [14] can be described thus: Drug metabolism in mouse liver microsomes. To be noted: read-out: Drug metabolism. The format is ADME, Microsome.
In data set [15] the target is T4, Phosphatidylinositol 4,5-bisphosphate 3-kinase catalytic subunit beta isoform. The experiment in a line: Inhibition of human PI3Kbeta-mediated Akt phosphorylation at T308 residue expressed in PTEN-deficient human PC3 cells after 2 hrs by Western blot analysis. The data set is classed as cell-based, PC-3.
Data set [16] can be described thus: Drug metabolism in human liver microsomes. The format is ADME, Microsome. The settings on record: read-out: Drug metabolism.

T4 sequence (P42338 whole entry, canonical isoform): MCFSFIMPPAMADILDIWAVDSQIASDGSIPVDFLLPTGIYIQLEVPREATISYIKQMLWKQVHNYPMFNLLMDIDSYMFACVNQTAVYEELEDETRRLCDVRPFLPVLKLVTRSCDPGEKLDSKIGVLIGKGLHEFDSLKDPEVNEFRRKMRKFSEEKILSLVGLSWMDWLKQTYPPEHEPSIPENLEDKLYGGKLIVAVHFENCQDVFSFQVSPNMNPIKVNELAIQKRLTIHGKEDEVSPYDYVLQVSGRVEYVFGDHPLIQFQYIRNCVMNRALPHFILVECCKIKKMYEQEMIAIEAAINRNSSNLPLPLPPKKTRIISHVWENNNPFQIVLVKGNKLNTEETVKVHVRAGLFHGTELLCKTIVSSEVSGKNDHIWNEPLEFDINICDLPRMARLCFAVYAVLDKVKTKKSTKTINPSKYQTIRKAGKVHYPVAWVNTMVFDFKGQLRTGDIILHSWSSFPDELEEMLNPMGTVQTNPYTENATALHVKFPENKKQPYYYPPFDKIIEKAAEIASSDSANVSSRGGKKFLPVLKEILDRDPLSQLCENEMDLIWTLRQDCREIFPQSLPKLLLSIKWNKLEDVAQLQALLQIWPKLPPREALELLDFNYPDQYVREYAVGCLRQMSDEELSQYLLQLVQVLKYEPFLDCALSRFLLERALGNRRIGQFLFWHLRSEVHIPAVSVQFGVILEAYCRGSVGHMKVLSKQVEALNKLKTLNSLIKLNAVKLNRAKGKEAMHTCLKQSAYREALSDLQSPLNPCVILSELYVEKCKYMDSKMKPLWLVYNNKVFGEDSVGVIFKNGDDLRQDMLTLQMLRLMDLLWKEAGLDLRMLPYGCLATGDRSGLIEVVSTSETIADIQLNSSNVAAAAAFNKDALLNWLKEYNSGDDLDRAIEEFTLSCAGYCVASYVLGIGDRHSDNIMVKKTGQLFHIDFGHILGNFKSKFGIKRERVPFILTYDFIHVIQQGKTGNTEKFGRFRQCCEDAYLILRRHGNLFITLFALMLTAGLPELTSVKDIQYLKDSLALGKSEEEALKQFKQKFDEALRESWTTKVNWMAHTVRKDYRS
T1 sequence (P42336 whole entry, canonical isoform): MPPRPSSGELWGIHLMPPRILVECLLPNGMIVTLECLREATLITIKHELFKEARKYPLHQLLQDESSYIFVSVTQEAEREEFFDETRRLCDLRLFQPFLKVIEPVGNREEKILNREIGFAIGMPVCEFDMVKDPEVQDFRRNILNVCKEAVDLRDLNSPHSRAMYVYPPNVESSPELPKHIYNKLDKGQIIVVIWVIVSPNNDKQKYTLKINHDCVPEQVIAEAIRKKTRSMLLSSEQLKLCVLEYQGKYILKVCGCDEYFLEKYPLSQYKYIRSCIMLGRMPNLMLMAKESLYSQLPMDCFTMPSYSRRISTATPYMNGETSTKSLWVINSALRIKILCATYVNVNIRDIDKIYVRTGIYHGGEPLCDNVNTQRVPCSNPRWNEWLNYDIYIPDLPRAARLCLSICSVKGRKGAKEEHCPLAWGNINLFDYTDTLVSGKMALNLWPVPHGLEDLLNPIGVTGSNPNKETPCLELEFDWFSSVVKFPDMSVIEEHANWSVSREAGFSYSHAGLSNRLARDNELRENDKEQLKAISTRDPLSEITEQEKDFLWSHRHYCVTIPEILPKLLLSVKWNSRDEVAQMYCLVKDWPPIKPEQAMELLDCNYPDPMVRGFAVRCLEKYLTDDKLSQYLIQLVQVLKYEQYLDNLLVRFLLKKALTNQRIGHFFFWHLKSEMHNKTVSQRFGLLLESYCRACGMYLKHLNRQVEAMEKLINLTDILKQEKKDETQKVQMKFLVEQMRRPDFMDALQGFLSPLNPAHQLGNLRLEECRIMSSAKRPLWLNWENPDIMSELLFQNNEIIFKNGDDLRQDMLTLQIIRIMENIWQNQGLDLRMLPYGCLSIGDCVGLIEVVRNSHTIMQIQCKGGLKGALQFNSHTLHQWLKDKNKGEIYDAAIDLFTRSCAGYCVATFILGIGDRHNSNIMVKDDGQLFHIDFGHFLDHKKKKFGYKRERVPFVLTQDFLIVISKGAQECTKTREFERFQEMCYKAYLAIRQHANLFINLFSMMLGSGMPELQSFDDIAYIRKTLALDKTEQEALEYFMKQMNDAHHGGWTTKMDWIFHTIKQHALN
T3 sequence (P48736 whole entry, canonical isoform): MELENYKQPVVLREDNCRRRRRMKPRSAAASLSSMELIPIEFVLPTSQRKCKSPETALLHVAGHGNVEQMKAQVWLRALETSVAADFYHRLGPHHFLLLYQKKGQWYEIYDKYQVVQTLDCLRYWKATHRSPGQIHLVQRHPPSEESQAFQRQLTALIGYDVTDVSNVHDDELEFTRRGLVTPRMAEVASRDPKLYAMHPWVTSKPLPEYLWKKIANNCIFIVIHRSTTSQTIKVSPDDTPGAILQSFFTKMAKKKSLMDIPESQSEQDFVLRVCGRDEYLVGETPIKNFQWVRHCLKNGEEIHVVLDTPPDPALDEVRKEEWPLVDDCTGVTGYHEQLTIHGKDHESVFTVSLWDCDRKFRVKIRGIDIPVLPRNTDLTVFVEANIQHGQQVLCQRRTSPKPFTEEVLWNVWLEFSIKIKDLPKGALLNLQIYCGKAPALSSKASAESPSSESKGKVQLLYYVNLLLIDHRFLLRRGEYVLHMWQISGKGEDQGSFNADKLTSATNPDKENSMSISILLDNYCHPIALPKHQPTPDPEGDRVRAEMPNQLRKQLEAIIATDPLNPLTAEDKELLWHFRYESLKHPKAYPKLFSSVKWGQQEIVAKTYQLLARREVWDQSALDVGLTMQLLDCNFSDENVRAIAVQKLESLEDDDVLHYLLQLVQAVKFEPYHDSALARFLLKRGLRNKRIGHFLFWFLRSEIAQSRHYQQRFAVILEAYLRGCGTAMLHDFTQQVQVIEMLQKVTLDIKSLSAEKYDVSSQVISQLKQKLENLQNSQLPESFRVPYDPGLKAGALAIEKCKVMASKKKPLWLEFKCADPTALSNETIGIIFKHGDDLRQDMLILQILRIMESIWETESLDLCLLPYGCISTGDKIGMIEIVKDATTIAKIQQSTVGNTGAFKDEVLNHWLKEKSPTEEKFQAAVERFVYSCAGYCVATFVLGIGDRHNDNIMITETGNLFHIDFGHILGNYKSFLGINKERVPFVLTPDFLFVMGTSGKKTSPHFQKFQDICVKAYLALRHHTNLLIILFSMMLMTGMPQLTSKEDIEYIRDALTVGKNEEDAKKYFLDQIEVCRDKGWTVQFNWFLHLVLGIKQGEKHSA

Take `Cc1cc(C(C)Nc2ccccc2)c2nc(N3CCOCC3)cc(=O)n2c1` (stereo not given): the IC50 is above 10000 nM in data set [1]; 252 nM in data set [2]; 10 nM in data set [3]; above 1000 nM in [4]; 851 nM in data set [5]; above 10000 nM in data set [6]. This molecule returned an IC50 in data set [7] above 1000 nM.
`O=c1cc(N2CCOCC2)nc(Cc2nc3ccc(F)cc3[nH]2)[nH]1`: the IC50 in data set [1] was above 10000 nM; in data set [8], above 40000 nM; in [10], above 10000 nM; in [3], 41 nM; in data set [5] it was 219 nM; in data set [12] it was 30 nM. Also, the IC50 in [13] is 41 nM; in data set [6], above 10000 nM; in [15] it was 100 nM. Moreover, in data set [9], the Papp was found to be 0.2 ×10⁻⁶ cm/s. Also, the solubility thermodynamic at 16 h in data set [11] turned out to be 76 µM (≈ 25 µg/mL). Besides, the metabolised was 0% in [14] and 69% in data set [16].
